According to paper PMC8748916, “Microbial enzymes induce colitis by reactivating triclosan in the mouse gastrointestinal tract” (Nature Communications, 2022):
Where “and” joins values, the source holds several entries; their conditions need not be identical. Equal entries are not always repeated.

Key:
[1] = Target engagement: GUSi in colon tissue and TCS to TCS-G ratio in colon digesta by LC-MS/MS; type: in vivo, mice; conditions: for GUSi in colon tissue: GUSi-treated mice, individual mice
Procedure: (§1) After another 3 weeks, the mice were stimulated with 2% DSS (molecular weight = 36–50 KDa, MP Biomedicals, Solon, OH) in drinking water for 6 days to induce colitis. At end of the experiment, the mice were sacrificed for analysis.
Fig. S15. Orally dosed GUSi reaches the mouse colon and suppresses conversion of TCS -G to TCS. a.
mice were stimulated with DSS to induce colitis. The final GUSi was dosed on day 25 and mice were sacrificed
for analysis on day 27. b. GUSi is detected in the mouse colon 2 days after the final dose of the inhibitor. c.
GUSi treatment reduces the ratio of TCS to TCS-G in colon digesta.
per group. NA: no TCS or TCS-G detected.

[2] = system: DSS-induced colitis; experiment: DSS-induced colitis in mice: TCS with or without GUSi (colon length, histology, FACS, qRT-PCR); type: in vivo
From the text: as §1
(§2) Total RNA of colon tissues and MC38 cells were isolated using Trizol reagent (Ambion) according to the manufacturer’s instruction. RNA was reverse transcribed into cDNA using the High Capacity cDNA Reverse Transcription kit (Applied Biosystem) according to the manufacturer’s instructions. In all, 20 μL PCR reactions were prepared using the Maxima SYBR Green Master Mix (Thermo Fisher Scientific), and qPCR was carried out using a DNA Engine Opticon System (Bio-Rad Laboratories). Mouse-specific primer sequences (Thermo Fisher Scientific) used to detect inflammatory biomarkers are listed in Supplementary Table S6. Gapdh expression was used as an internal control.
Distal colon tissues were dissected, washed with cold PBS, and digested with Hank’s balanced salt solution (HBSS, Lonza) supplemented with 1 mM dithiothreitol (DTT) and 5 mM EDTA at 4 °C (colon […] cells). The released cells were stained with FITC-conjugated anti-mouse CD45 (BioLegend, Clone: 30-F11), PerCP/Cy5.5-conjugated anti-mouse F4/80 (BioLegend, Clone: BM8), and PE/Cy7-conjugated anti-mouse Ly-6G/Ly-6C (GR-1) (BioLegend, Clone: RB6-8C5) with a 1:100 diluted solution. Cells were stained with Zombie Violet^TM dye (Zombie Violet^TM Fixable Viability Kit; BioLegend) according to the manufacturer’s instructions to exclude dead cells. Gating and cell identification strategies are as follows: briefly, cell doublets and clumps were eliminated using FSC-A gating and debris was eliminated using FSC-A vs SSC-A. Dead cells were gated out using Zombie Violet™ dye. Flow cytometry data were acquired on a BD LSR Fortessa^TMcell analyzer (Becton Dickinson, Franklin Lakes, NJ) and analyzed using FlowJo software (FlowJo, LLC). Gating strategies used for the identification of major immune cell populations are shown in Supplementary Fig. S17.
The dissected colon tissues were fixed in 10% neutral buffered formalin (Thermo Fisher Scientific) for 48 h. After dehydration, the tissues were embedded in paraffin and sliced ([…]) by Rotary Microtome (Thermo Fisher Scientific). The slices were dewaxed in serial xylene and rehydrated through ethanol solutions, stained with hematoxylin and eosin (Sigma-Aldrich), and images were obtained under 200× magnification (BZ-X700 microscope, Keyence, Itasca, IL). The histologic scores were evaluated by a blinded observer according to the following measures: crypt architecture, degree of inflammatory cell infiltration, muscle thickening, goblet cell depletion, and crypt abscess. The histologic damage score is the sum of each individual score.

[3] = Antibiotic suppression of gut microbiota: kinetics of TCS colonic metabolism after one-time oral gavage; conditions: within the 24-h period; 8 mg/kg TCS oral gavage
[4] = LC-MS/MS of TCS and its metabolites in human stool and urine after use of TCS-containing personal care products; type: in vivo; conditions: for TCS metabolites in human stool / TCS metabolites in human urine: Treatment TCS, individual subjects; for average molar concentration ratio: TCS-exposed subjects;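 as to Profile in stool (%): molar share of summed TCS plus TCS-G plus TCS-sulfate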;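 as to Profile in urine (%): molar share of summed TCS plus TCS-G plus TCS-sulfate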;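 as to average molar concentration ratio: molar share of summed TCS plus TCS-G plus TCS-sulfate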
From the text: To broaden our understanding of TCS metabolic profiles in the gut, we next analyzed TCS metabolism in human subjects. We utilized urine and stool samples from a previous study in which the recruited human subjects were first subjected to a washout period (no usage of TCS-containing products), then were randomly assigned to two groups that used personal care products like toothpaste with or without TCS for up to four months (see the scheme of the experiment in Fig. 1c)[15]. Previous data had established that humans are primarily exposed to TCS via toothpaste that provides a direct oral route to the gastrointestinal tract[16],[17].

[5] = TCS colonic metabolism in conventional vs germ-free Swiss Webster mice; type: in vivo; conditions: 6 h after oral gavage of 8 mg/kg TCS, individual mice
[6] = Antibiotic suppression of gut microbiota: TCS colonic metabolism in mice (80 ppm TCS diet, 4 weeks); type: in vivo; conditions: 80 ppm TCS via diet 4 weeks; antibiotic cocktail vs none
From the text: This antibiotic composition was used in previous studies by others[20],[21] and us[22],[23]. […] After another 4 weeks, the mice were sacrificed, and their tissues were collected for LC-MS/MS analysis.

[7] = system: MC38 cells; experiment: Inflammatory response of MC38 intestinal epithelial cells (Il-6 RT-qPCR, IL-6 ELISA); type: cell-based, mouse
Procedure: MC38 intestinal epithelial cells were cultured in Dulbecco’s Modified Eagle Medium (DMEM) supplemented with 10% fetal bovine serum (FBS) and incubated at 37 °C under an atmosphere of 5% CO2. MC38 cells were seeded at 20% confluency and left to settle overnight. Cells were then treated with either 1 μM TCS, TCS-G, or vehicle (DMSO). After 48 h, cells were harvested for RT-qPCR analysis. Cell medium was collected for ELISA analysis using the CBA Mouse Inflammation Kit (BD Sciences) according to the manufacturer’s instructions, and data were acquired using a BD LSR Fortessa flow cytometer (BD Biosciences) and analyzed using FlowJo software (Treestar).
as §2
a. Cultured murine intestinal epithelial MC38 cells were treated with 1 μM of TCS or TCS-G for 48 h prior to
studying inflammatory responses. b. TCS increases the expression of Il-6, which encodes the pro-inflammatory
n = 3 per group from three independent experiments, * P < 0.05, ** P < 0.01, *** P < 0.001.

[8] = DSS colitis mice, FACS, individual animals, Fig.5d
[9] = DSS colitis mice, gene expression, individual animals, Fig.5e
[10] = treatment time 0 months (after washout)

C1CCc2c(c(N3CCOCC3)nc3sc4c(N5CCNCC5)nnnc4c23)C1 [GUSi, UNC10201652]
presence in colon tissues ([1]; 2 days after the final oral administration of GUSi (1 mg/kg)): detected | ratio of TCS to TCS-G in colon digesta ([1]; GUSi 1 mg/kg oral gavage, TCS via diet): significantly reduced | GUSi in colon tissue ([1]; TCS): 4.6 pmol/g and 5.3 pmol/g and 18.7 pmol/g and 4.5 pmol/g and 2.1 pmol/g and 0.7 pmol/g and 6.2 pmol/g and 5.7 pmol/g and 12 pmol/g and 5.4 pmol/g | GUSi in colon tissue ([1]; Veh (no TCS)): 9 pmol/g and 9.3 pmol/g and 5.9 pmol/g and 9.8 pmol/g and 11.9 pmol/g and 9.9 pmol/g and 14 pmol/g and 8.6 pmol/g | colitis-enhancing effects of TCS with co-administration of GUSi ([2]; 1 mg/kg GUSi via oral gavage, 80 ppm TCS via diet, DSS-induced colitis, all measures): eliminated | cd45+(%) [2, 8]: 3.37% and 1.44% and 2.8% and 3.35% and 3.49% and 6.62% and 4.63% and 3.22% | f4/80+ (%) [2, 8]: 5.88% and 5.56% and 2.33% and 7.14% and 0% and 1.72% | gr-1+ (%) [2, 8]: 0% and 2.94% and 5.56% and 1.43% and 2.13% | Il-6 [2, 9]: 0.5774 and 0.763 and 0.8366 and 0.5822 and 0.577 and 0.6095 | Il-17 [2, 9]: 0.5948 and 0.2298 and 0.792 and 0.6818 and 0.4596 and 0.7005 | Il-23 [2, 9]: 0.7347 and 0.9268 and 1.245 and 0.9397 and 0.6326 and 1.199 | Mcp1 [2, 9]: 0.841 and 0.7995 and 1.048 and 0.7621 and 1.517 and 1.4734 and 0.8163 | Tnf-α [2, 9]: 1.652 and 0.2802 and 0.2939 and 0.2088 and 0.6209 and 0.7192 | HE ([2]; DSS colitis mice, histology score, individual animals, Fig.5c): 4 and 3 and 6 | colon length (cm) ([2]; DSS colitis mice, individual animals, Fig.5b): 6.9 cm and 7.5 cm and 7.1 cm and 7.2 cm and 6.7 cm

O=C(O)C1OC(Oc2cc(Cl)ccc2Oc2ccc(Cl)cc2Cl)C(O)C(O)C1O (stereo not drawn) [TCS-G, triclosan-glucuronide]
increase of AUC in colon digesta by antibiotic treatment [3]: ~ 200 fold | Profile in urine (%) ([4]; TCS-exposed human subjects, n=7 urine samples): 98.39% | Profile in stool (%) ([4]; TCS-exposed human subjects, n=23 stool samples): 0.80% | TCS metabolites in human stool [4, 10]: 10.69 pmol/ g stool and 5.96 pmol/ g stool and < LOD and 10.80 pmol/ g stool | TCS metabolites in human urine [4, 10]: 18.4 nM urine and 3.47 nM urine and < LOD and 12.5 nM urine | TCS metabolites in human stool ([4]; treatment time 1 month): 10.24 pmol/ g stool and 13.69 pmol/ g stool and < LOD (3×) and 2.81 pmol/ g stool | TCS metabolites in human urine ([4]; treatment time 1 month): 626 nM urine | TCS metabolites in human stool ([4]; treatment time 2 months): 3.18 pmol/ g stool and 2.97 pmol/ g stool and < LOD (2×) and 4.42 pmol/ g stool | TCS metabolites in human urine ([4]; treatment time 2 months): 953 nM urine | TCS metabolites in human stool ([4]; treatment time 3 months): 7.01 pmol/ g stool and 5.96 pmol/ g stool and < LOD (3×) and 6.49 pmol/ g stool | TCS metabolites in human urine ([4]; treatment time 3 months): 771 nM urine | TCS metabolites in human stool ([4]; treatment time 4 months): 7.57 pmol/ g stool and < LOD (3×) and 3.12 pmol/ g stool and 4.69 pmol/ g stool | TCS metabolites in human urine ([4]; treatment time 4 months): 1037 nM urine and 70.9 nM urine and 1373 nM urine and 775 nM urine | average molar concentration ratio ([4]; human stool): 0.8% | average molar concentration ratio ([4]; human urine): 98.4% | tcs, tcs-G in colon digesta ([5]; CONV Swiss Webster mice): 0.05 pmol/mg and 0.09 pmol/mg and 0.07 pmol/mg and 0.08 pmol/mg and 0.03 pmol/mg and 0.02 pmol/mg | tcs, tcs-G in colon digesta ([5]; GF Swiss Webster mice): 3.55 pmol/mg and 2.97 pmol/mg and 3.05 pmol/mg and 2.08 pmol/mg and 2.61 pmol/mg | change of concentration in the fecal content by antibiotic treatment [6]: sixfold | Il-6 gene expression ([7]; 1 µM, 48 h): does not | Il-6 (Fig. S16b) ([7]; MC38 cells, gene expression, replicates): 1.072 and 0.7026 and 0.674 and 0.599 and 2.104 and 1.745 and 1.341 and 2.8489 and 1.88 | IL-6 (Fig. S16c) ([7]; MC38 cells, protein, replicates): 30.76 pg/mL and 26.1 pg/mL and 35.84 pg/mL and 30.49 pg/mL and 20.04 pg/mL and 13.78 pg/mL and 35.28 pg/mL and 36.12 pg/mL and 25.88 pg/mL
